Source: article PMC11220031, “Structural basis for the inhibition mechanism of LAT1-4F2hc complex by JPH203” (Cell Discovery, 2024)
Substitutions are numbered along the chain they refer to.

Key:
Assay in all cases: microscale thermophoresis (MST)
Details in all cases: read-out: binding affinity
[1] = target: T1, LAT2–4F2hc complex (Homo sapiens, UniProt Q9UHI5)
T1 construct: gene SLC7A8; LAT2–4F2hc heteromeric complex used for MST; construct, host and tags only in supplement; with Amino acid transporter heavy chain SLC3A2 (4F2 cell-surface antigen heavy chain)
T1 sequence (Q9UHI5 1-535): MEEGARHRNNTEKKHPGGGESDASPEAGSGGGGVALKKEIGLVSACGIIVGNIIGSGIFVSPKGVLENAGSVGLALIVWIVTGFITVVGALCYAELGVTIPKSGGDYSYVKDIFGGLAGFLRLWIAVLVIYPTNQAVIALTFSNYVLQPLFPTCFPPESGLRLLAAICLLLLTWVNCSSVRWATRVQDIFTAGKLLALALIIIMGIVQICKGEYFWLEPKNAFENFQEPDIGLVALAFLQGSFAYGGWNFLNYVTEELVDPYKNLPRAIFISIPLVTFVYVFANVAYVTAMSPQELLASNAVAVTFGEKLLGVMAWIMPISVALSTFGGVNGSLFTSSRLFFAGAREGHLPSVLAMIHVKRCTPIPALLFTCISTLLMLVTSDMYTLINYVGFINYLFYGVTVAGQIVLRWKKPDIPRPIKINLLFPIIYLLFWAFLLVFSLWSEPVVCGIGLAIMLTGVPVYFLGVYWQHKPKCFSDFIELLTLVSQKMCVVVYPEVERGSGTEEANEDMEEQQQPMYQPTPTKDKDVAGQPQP
T1 sequence (P08195 2-529 partner): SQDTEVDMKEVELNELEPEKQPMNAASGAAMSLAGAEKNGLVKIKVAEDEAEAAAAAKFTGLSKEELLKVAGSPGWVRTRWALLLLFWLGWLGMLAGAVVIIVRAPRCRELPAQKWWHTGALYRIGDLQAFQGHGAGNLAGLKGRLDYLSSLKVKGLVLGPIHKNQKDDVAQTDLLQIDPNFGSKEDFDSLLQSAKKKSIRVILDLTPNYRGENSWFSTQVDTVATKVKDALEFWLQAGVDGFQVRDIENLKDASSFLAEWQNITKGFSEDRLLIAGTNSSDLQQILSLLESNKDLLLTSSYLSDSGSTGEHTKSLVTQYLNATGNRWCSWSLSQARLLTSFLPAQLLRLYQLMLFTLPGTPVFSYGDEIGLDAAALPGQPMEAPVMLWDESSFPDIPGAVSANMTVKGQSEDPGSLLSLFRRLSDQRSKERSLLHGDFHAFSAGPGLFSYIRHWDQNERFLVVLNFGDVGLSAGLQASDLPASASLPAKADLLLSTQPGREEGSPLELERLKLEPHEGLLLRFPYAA

[2] = target: T2, LAT1–4F2hc complex (Homo sapiens, UniProt Q01650, Y259F)
T2 construct: gene SLC7A5; full-length LAT1–4F2hc heteromeric complex, purified by size-exclusion chromatography; host and tags only in supplement; with Amino acid transporter heavy chain SLC3A2 (4F2 cell-surface antigen heavy chain)
T2 sequence (Q01650 2-507 Y259F, one chain of several): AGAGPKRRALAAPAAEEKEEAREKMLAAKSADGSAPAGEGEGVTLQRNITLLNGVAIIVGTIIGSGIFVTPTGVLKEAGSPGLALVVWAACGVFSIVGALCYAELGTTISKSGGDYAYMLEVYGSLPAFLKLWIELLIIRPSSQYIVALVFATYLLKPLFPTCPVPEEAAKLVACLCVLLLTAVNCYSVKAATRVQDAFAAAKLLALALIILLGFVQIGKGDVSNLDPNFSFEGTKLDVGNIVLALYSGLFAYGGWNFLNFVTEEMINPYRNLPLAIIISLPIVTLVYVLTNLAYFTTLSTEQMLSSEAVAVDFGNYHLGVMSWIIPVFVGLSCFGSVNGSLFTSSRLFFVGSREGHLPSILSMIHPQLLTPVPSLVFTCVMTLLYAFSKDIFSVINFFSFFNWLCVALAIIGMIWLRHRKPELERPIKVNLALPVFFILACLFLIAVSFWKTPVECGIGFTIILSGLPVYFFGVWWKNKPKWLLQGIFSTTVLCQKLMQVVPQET

[3] = target: T3, LAT1–4F2hc complex (Homo sapiens, UniProt Q01650)
T3 construct: gene SLC7A5; full-length LAT1–4F2hc heteromeric complex, purified by size-exclusion chromatography; host and tags only in supplement; with Amino acid transporter heavy chain SLC3A2 (4F2 cell-surface antigen heavy chain)
T3 sequence (Q01650 2-507, one chain of several): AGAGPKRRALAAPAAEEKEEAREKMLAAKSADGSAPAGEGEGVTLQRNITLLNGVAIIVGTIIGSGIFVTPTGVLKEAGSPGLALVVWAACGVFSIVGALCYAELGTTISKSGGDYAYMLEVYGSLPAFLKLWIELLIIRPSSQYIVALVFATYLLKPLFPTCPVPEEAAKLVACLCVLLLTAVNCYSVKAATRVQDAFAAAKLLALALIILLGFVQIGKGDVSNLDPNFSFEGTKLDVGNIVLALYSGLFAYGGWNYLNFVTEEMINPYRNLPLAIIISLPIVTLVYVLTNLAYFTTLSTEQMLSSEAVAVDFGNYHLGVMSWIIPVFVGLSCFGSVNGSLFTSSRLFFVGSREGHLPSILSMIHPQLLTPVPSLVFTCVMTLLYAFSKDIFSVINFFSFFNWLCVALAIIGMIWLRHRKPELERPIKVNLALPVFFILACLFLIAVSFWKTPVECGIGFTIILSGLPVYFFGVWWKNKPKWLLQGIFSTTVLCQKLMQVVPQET

[4] = target: T4, LAT1–4F2hc complex (Homo sapiens, UniProt Q01650, F400V)
T4 construct: gene SLC7A5; full-length LAT1–4F2hc heteromeric complex, purified by size-exclusion chromatography; host and tags only in supplement; with Amino acid transporter heavy chain SLC3A2 (4F2 cell-surface antigen heavy chain)
T4 sequence (Q01650 2-507 F400V, one chain of several): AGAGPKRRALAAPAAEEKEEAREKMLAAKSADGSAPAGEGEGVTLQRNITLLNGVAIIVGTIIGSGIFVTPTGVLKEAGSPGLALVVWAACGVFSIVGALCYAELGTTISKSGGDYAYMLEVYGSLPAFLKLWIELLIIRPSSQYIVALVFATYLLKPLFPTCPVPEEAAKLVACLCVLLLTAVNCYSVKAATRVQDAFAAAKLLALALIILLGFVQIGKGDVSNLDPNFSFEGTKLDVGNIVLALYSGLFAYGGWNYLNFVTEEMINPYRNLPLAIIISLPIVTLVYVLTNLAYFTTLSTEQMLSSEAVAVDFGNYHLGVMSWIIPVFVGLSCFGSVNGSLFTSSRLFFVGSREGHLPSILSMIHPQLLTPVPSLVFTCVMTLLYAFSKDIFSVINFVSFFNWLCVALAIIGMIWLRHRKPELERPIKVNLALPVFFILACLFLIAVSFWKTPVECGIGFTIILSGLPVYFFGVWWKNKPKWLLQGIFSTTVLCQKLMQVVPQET

[5] = target: T5, LAT2–4F2hc complex (Homo sapiens, UniProt Q9UHI5, F250Y)
T5 construct: gene SLC7A8; LAT2–4F2hc heteromeric complex used for MST; construct, host and tags only in supplement; with Amino acid transporter heavy chain SLC3A2 (4F2 cell-surface antigen heavy chain)
T5 sequence (Q9UHI5 1-535 F250Y): T1 sequence (Q9UHI5 1-535) with F250Y
T5 sequence (P08195 2-529 partner): T1 sequence (P08195 2-529 partner)

[6] = target: T6, LAT2–4F2hc complex (Homo sapiens, UniProt Q9UHI5, V391F)
T6 construct: gene SLC7A8; LAT2–4F2hc heteromeric complex used for MST; construct, host and tags only in supplement; with Amino acid transporter heavy chain SLC3A2 (4F2 cell-surface antigen heavy chain)
T6 sequence (Q9UHI5 1-535 V391F): T1 sequence (Q9UHI5 1-535) with V391F
T6 sequence (P08195 2-529 partner): T1 sequence (P08195 2-529 partner)

Kd [1]: 4.51 ± 1.35 µM
Kd [2]: 3.81 ± 1.26 µM
Kd [3]: 1.48 ± 0.28 µM
Kd [4]: 6.21 ± 1.58 µM
Kd [5]: 2.55 ± 0.96 µM
Kd [6]: 1.78 ± 0.65 µM
Compound: Nc1cc(COc2c(Cl)cc(C[C@H](N)C(=O)O)cc2Cl)c2oc(-c3ccccc3)nc2c1 [JPH203]
